A short description of this assay: Inhibition of soybean lipoxygenase assessed as formation of 13-hydroperoxylinoleic acid after 7 mins.

What is called IC50 is the concentration at which inhibition is half-maximal.

For `COc1ccc2cc(C(C)C(=O)N3CCSCC3)ccc2c1` (stereo unspecified), the IC50 came out at 12 µM.

The values are drawn from BindingDB's records for doi:10.1016/j.bmcl.2015.12.063 (Aristotelian University of Thessaloniki, 2016).
